Measured values reported in patent publication US11434242B2, “Dopamine-b-hydroxylase inhibitors” (BIAL-PORTELA & Cª, S.A., priority 2017, dated 2022).
Marks after values point to notes of the source that are not given here.

Target: T1, Dopamine beta hydroxylase (Homo sapiens, UniProt P09172)
T1 construct: 125 μl of plasma; tissue Instituto Português do Sangue Transplantação; host or cells: human plasma from healthy donors
T1 sequence (P09172 40-617 limits assumed): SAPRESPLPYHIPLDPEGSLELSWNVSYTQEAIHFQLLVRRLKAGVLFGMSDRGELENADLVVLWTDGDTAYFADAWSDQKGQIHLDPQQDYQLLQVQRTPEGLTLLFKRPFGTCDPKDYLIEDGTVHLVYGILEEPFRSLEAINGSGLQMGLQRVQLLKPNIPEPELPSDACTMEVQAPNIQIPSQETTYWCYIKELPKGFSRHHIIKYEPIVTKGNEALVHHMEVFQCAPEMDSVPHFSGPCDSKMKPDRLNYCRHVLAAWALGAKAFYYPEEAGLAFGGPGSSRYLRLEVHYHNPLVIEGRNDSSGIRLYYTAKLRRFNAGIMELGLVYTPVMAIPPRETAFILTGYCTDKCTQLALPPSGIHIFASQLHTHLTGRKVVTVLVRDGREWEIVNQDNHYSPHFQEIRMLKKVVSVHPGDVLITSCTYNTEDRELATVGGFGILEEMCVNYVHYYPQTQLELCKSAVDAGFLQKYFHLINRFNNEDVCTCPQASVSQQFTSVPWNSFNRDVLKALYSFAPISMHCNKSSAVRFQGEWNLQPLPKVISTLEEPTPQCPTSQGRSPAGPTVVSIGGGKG
Assay: Dopamine beta hydroxylase activity in human plasma
Format: biochemical
Details: for Plasma (1 μM), activity in % of control: inhibitor 1 μM
Outline: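 Healthy-donor human plasma pre-incubated 10 min at 37° C with compound at final 10, 100 or 1000 nM in pH 5.0 acetate buffer with ascorbate, fumarate, pargyline, N-ethylmaleimide, catalase and copper sulfate. Tyramine substrate then added for 45 min; octopamine formed was isolated by SCX cartridge, periodate-converted and read at 330 nm; activity given as % control.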

| Structure (SMILES) | Plasma (0.01 μM), activity in % of control (inhibitor 0.01 μM) | Plasma (0.1 μM), activity in % of control (inhibitor 0.1 μM) | Plasma (0.01 μM), activity in % of control, re-test (asterisked) (inhibitor 0.01 μM, re-tested under the same experimental conditions, asterisked data believed to be correct) | Plasma (0.1 μM), activity in % of control, re-test (asterisked) (inhibitor 0.1 μM, re-tested under the same experimental conditions, asterisked data believed to be correct) | Plasma (1 μM), activity in % of control |
| --- | --- | --- | --- | --- | --- |
| O=C(Cc1[nH]c(=S)n2c1[C@@H]1C[C@]1(c1cc(Cl)ccc1F)C2)NCc1ccccc1 [Example 156, N-benzyl-2-((5aS,6aR)-5a-(5-chloro-2-fluorophenyl)-3-thioxo-2,3,5,5a,6,6a-hexahydrocyclopropa[3,4]pyrrolo[1,2-c]imidazol-1-yl)acetamide] | 88.6 % of control | 40.3 % of control |  |  |  |
| O=C(Cc1[nH]c(=S)n2c1[C@@H]1C[C@]1(c1cc(Br)ccc1F)C2)N1CCOCC1 [Example 157] | 84.2 % of control | 24.2 % of control |  |  |  |
| O=C(Cc1[nH]c(=S)n2c1[C@@H]1C[C@]1(c1cc(Cl)ccc1F)C2)N1CCCCC1 [Example 158, 2-((5aS,6aR)-5a-(5-chloro-2-fluorophenyl)-3-thioxo-2,3,5,5a,6,6a-hexahydrocyclopropa[3,4]pyrrolo[1,2-c]imidazol-1-yl)-1-(piperidin-1-yl)ethan-1-one] | 90.9 % of control | 52.1 % of control |  |  |  |
| O=C(Cc1[nH]c(=S)n2c1C[C@@H](c1c(F)ccc(Cl)c1F)C2)NCCn1cccn1 [Example 162, (S)—N-(2-(1H-pyrazol-1-yl)ethyl)-2-(6-(3-chloro-2,6-difluorophenyl)-3-thioxo-2,5,6,7-tetrahydro-3H-pyrrolo[1,2-c]imidazol-1-yl)acetamide] | 87.2 % of control | 31.3 % of control |  |  |  |
| CN(C(=O)Cc1[nH]c(=S)n2c1C[C@@H](c1c(F)ccc(Cl)c1F)C2)C1CCS(=O)(=O)CC1 [Example 163, (S)-2-(6-(3-chloro-2,6-difluorophenyl)-3-thioxo-2,5,6,7-tetrahydro-3H-pyrrolo[1,2-c]imidazol-1-yl)-N-(1,1-dioxidotetrahydro-2H-thiopyran-4-yl)-N-methylacetamide] | 14.8 % of control | 2.4 % of control |  |  |  |
| O=C(Cc1[nH]c(=S)n2c1C[C@@H](c1c(F)ccc(Br)c1F)C2)N1CCC2(CCOC2)CC1 [Example 165, (S)-2-(6-(3-bromo-2,6-difluorophenyl)-3-thioxo-2,5,6,7-tetrahydro-3H-pyrrolo[1,2-c]imidazol-1-yl)-1-(2-oxa-8-azaspiro[4.5]decan-8-yl)ethan-1-one] | 74.3 % of control | 14.8 % of control |  |  |  |
| O=C(Cc1[nH]c(=S)n2c1C[C@@H](c1c(F)ccc(Cl)c1F)C2)Nc1nncs1 [Example 168, (S)-2-(6-(3-chloro-2,6-difluorophenyl)-3-thioxo-2,5,6,7-tetrahydro-3H-pyrrolo[1,2-c]imidazol-1-yl)-N-(1,3,4-thiadiazol-2-yl)acetamide] | 51.9 % of control | 10.5 % of control |  |  |  |
| O=C(Cc1[nH]c(=S)n2c1C[C@@H](c1c(F)ccc(Cl)c1F)C2)Nc1ccccn1 [Example 169, (S)-2-(6-(3-chloro-2,6-difluorophenyl)-3-thioxo-2,5,6,7-tetrahydro-3H-pyrrolo[1,2-c]imidazol-1-yl)-N-(pyridin-2-yl)acetamide] | 59.3 % of control | 17.1 % of control |  |  |  |
| O=C(Cc1[nH]c(=S)n2c1[C@@H]1C[C@]1(c1cc(Br)ccc1F)C2)Nc1ccccn1 [Example 170, 2-((5aS,6aR)-5a-(5-bromo-2-fluorophenyl)-3-thioxo-2,3,5,5a,6,6a-hexahydrocyclopropa[3,4]pyrrolo[1,2-c]imidazol-1-yl)-N-(pyridin-2-yl)acetamide] | 64.9 % of control | 2.0 % of control |  |  |  |
| O=C(Cc1[nH]c(=S)n2c1[C@@H]1C[C@]1(c1cc(Cl)ccc1F)C2)Nc1cccnc1 [Example 171, 2-((5aS,6aR)-5a-(5-chloro-2-fluorophenyl)-3-thioxo-2,3,5,5a,6,6a-hexahydrocyclopropa[3,4]pyrrolo[1,2-c]imidazol-1-yl)-N-(pyridin-3-yl)acetamide] | 40.4 % of control | 3.7 % of control |  |  |  |
| OCCc1[nH]c(=S)n2c1C[C@H](c1c(F)c(F)cc(F)c1F)C2 [Example 172, (R)-1-(2-hydroxyethyl)-6-(2,3,5,6-tetrafluorophenyl)-2,5,6,7-tetrahydro-3H-pyrrolo[1,2-c]imidazole-3-thione] |  | 46.3 % of control |  |  | 8.1 % of control |
| CC(C)NCCc1[nH]c(=S)n2c1[C@@H]1C[C@]1(c1cc(Cl)ccc1F)C2.Cl [Example 175, (5aS,6aR)-5a-(5-chloro-2-fluorophenyl)-1-(2-(isopropylamino)ethyl)-5,5a,6,6a-tetrahydrocyclopropa[3,4]pyrrolo[1,2-c]imidazole-3(2H)-thione hydrochloride] |  | 61.7 % of control |  |  | 13.8 % of control |

Results, then the compound that gave them:

| Plasma (0.01 μM), activity in % of control (inhibitor 0.01 μM) | Plasma (0.1 μM), activity in % of control (inhibitor 0.1 μM) | Plasma (0.01 μM), activity in % of control, re-test (asterisked) (inhibitor 0.01 μM, re-tested under the same experimental conditions, asterisked data believed to be correct) | Plasma (0.1 μM), activity in % of control, re-test (asterisked) (inhibitor 0.1 μM, re-tested under the same experimental conditions, asterisked data believed to be correct) | Plasma (1 μM), activity in % of control | Structure (SMILES) |
| --- | --- | --- | --- | --- | --- |
| 84.3 % of control | 50.9 % of control |  |  |  | N#CCNC(=O)Cc1[nH]c(=S)n2c1C[C@H](c1c(F)ccc(Br)c1F)C2 [Example 159, (R)-2-(6-(3-bromo-2,6-difluorophenyl)-3-thioxo-2,5,6,7-tetrahydro-3H-pyrrolo[1,2-c]imidazol-1-yl)-N-(cyanomethyl)acetamide] |
| 84.7 % of control | 50.8 % of control |  |  |  | O=C(Cc1[nH]c(=S)n2c1C[C@H](c1c(F)ccc(Br)c1F)C2)N[C@@H]1CCCC[C@H]1O [Example 160, 2-((R)-6-(3-bromo-2,6-difluorophenyl)-3-thioxo-2,5,6,7-tetrahydro-3H-pyrrolo[1,2-c]imidazol-1-yl)-N-((1R,2R)-2-hydroxycyclohexyl)acetamide] |
| 85.0 % of control | 46.0 % of control |  |  |  | O=C(Cc1[nH]c(=S)n2c1C[C@H](c1c(F)ccc(Br)c1F)C2)N[C@H]1CCC[C@@H]1O [Example 161, 2-((R)-6-(3-bromo-2,6-difluorophenyl)-3-thioxo-2,5,6,7-tetrahydro-3H-pyrrolo[1,2-c]imidazol-1-yl)-N-((1S,2S)-2-hydroxycyclopentyl)acetamide] |
| 65.8 % of control | 17.1 % of control |  |  |  | CS(=O)(=O)C1CCN(C(=O)Cc2[nH]c(=S)n3c2C[C@@H](c2c(F)ccc(Br)c2F)C3)C1 (stereo partly drawn) [Example 164, 2-((S)-6-(3-bromo-2,6-difluorophenyl)-3-thioxo-2,5,6,7-tetrahydro-3H-pyrrolo[1,2-c]imidazol-1-yl)-1-(3-(methylsulfonyl)pyrrolidin-1-yl)ethan-1-one] |
| 66.9 % of control | 14.1 % of control |  |  |  | O=C(Cc1[nH]c(=S)n2c1C[C@@H](c1c(F)ccc(Br)c1F)C2)N1CC[S+]([O-])CC1 [Example 166, (S)-2-(6-(3-bromo-2,6-difluorophenyl)-3-thioxo-2,5,6,7-tetrahydro-3H-pyrrolo[1,2-c]imidazol-1-yl)-1-(1-oxidothiomorpholino)ethan-1-one] |
| 50.8 % of control | 3.2 % of control | 78.0* % of control | 28.0* % of control |  | CN(C(=O)Cc1[nH]c(=S)n2c1C[C@@H](c1c(F)ccc(Br)c1F)C2)C1CCOC1 (stereo partly drawn) [Example 167, 2-((S)-6-(3-bromo-2,6-difluorophenyl)-3-thioxo-2,5,6,7-tetrahydro-3H-pyrrolo[1,2-c]imidazol-1-yl)-N-methyl-N-(tetrahydrofuran-3-yl)acetamide] |
| 94.2 % of control | 33.1 % of control |  |  |  | OCCc1[nH]c(=S)n2c1C[C@H](c1c(F)ccc(Br)c1F)C2 [Example 173, (R)-6-(3-bromo-2,6-difluorophenyl)-1-(2-hydroxyethyl)-2,5,6,7-tetrahydro-3H-pyrrolo[1,2-c]imidazole-3-thione] |
| 95.3 % of control | 74.9 % of control |  |  |  | Fc1ccc(Br)c(F)c1[C@H]1Cc2c(CCN[C@@H]3CCOC3)[nH]c(=S)n2C1 [Example 176, (R)-6-(3-bromo-2,6-difluorophenyl)-1-(2-(((R)-tetrahydrofuran-3-yl)amino)ethyl)-2,5,6,7-tetrahydro-3H-pyrrolo[1,2-c]imidazole-3-thione] |
| 99.9 % of control | 77.1 % of control |  |  |  | Fc1ccc(Br)c(F)c1[C@H]1Cc2c(CCN3CCC(F)(F)CC3)[nH]c(=S)n2C1 [Example 177, (R)-6-(3-bromo-2,6-difluorophenyl)-1-(2-(4,4-difluoropiperidin-1-yl)ethyl)-2,5,6,7-tetrahydro-3H-pyrrolo[1,2-c]imidazole-3-thione] |
